Reference: US10266549B2, “ULK1 inhibitors and methods using same” (SALK INSTITUTE FOR BIOLOGICAL STUDIES, priority 2014, dated 2019)

molecular target: ULK1 (Homo sapiens (Human), UniProt O75385); assay: ULK1 inhibition assay (Table 1); assay type: biochemical; settings: * = tested as a mixture of regioisomers
Sequence (O75385 whole entry, species assumed): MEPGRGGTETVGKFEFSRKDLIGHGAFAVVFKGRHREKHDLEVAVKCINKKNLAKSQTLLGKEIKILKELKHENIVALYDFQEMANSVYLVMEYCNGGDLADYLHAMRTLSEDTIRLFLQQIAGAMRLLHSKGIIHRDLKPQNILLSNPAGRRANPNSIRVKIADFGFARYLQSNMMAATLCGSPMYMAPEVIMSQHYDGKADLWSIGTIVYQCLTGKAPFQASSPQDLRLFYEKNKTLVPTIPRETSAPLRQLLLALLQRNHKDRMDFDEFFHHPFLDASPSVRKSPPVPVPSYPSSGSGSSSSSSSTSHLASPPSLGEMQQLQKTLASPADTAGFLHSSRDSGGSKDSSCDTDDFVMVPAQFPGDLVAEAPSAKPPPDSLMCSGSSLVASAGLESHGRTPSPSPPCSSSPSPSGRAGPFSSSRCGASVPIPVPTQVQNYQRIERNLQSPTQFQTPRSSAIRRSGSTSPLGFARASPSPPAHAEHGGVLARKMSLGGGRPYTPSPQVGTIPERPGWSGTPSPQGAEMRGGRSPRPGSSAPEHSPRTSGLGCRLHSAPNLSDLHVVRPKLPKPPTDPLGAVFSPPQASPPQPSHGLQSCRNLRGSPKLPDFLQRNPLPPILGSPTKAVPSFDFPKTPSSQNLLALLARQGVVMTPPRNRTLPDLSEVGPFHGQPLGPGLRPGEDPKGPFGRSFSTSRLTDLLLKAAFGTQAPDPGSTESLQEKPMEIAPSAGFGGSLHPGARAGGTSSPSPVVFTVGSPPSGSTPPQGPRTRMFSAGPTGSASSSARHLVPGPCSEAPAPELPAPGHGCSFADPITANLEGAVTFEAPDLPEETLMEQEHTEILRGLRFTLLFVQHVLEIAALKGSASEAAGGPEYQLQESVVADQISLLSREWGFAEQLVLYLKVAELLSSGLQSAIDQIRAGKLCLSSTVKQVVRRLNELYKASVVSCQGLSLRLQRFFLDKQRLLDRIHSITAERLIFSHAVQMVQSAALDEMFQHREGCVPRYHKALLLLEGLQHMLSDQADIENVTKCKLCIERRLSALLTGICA

| Compound | IC50 [nM] |
| --- | --- |
| COc1ccc(C)c(Nc2ncc(Cl)c(NCc3cccc(S(C)(=O)=O)c3)n2)c1 [compound 41, 5-Chloro-N^2-(5-methoxy-2-methylphenyl)-N^4-(3-(methylsulfonyl)benzyl)pyrimidine-2,4-diamine] | > 2000 |
| CNC(=O)c1ccccc1Oc1nc(Nc2cc(OC)ccc2C)ncc1Br [compound 170, 2-((5-bromo-2-((5-methoxy-2-methylphenyl)amino)pyrimidin-4-yl)oxy)-N-methylbenzamide] | > 2000 |
| CNc1ncc(C(F)(F)F)c(Nc2cnc3[nH]ccc3c2)n1 [182b, N2-methyl-N4-(1H-pyrrolo[2,3-b]pyridin-5-yl)-5-(trifluoromethyl)pyrimidine-2,4-diamine] | 200 to 2000 |
| COCCNc1ncc(C(F)(F)F)c(Nc2ccc3c(c2)CCC(=O)N3)n1 [151b, 6-((2-((2-methoxyethyl)amino)-5-(trifluoromethyl)pyrimidin-4-yl)amino)-3,4-dihydroquinolin-2(1H)-one] | < 200 |
| Oc1nc(Nc2ccc(Cl)c(Cl)c2)ncc1C(F)(F)F [108b, 2-((3,4-dichlorophenyl)amino)-5-(trifluoromethyl)pyrimidin-4-ol] | > 2000 |
| FC(F)(F)c1cnc(NC2CCC2)nc1Nc1ccc2c(c1)OCO2 [168a, N^4-(benzo[d][1,3]dioxol-5-yl)-N^2-cyclobutyl-5-(trifluoromethyl)pyrimidine-2,4-diamine] | < 200 |
| COc1cc(Nc2nc(-n3nnc4ccccc43)ncc2Br)cc(O)c1OC [Example 331b] | 200 to 2000 |
| O=C1CCc2cc(Nc3ncc(C(F)(F)F)c(NC4CCCC4)n3)ccc2N1 [160a, 6-((4-(cyclopentylamino)-5-(trifluoromethyl)pyrimidin-2-yl)amino)-3,4-dihydroquinolin-2(1H)-one] | < 200 |
| Cc1cccc(Oc2nc(Nc3ccc4c(c3)CCC(=O)N4)ncc2C(F)(F)F)c1C [compound 83, 6-((4-(2,3-Dimethylphenoxy)-5-(trifluoromethyl)pyrimidin-2-yl)amino)-3,4-dihydroquinolin-2(1H)-one] | < 200 |
| COc1cc(Nc2ncc(C(F)(F)F)c(Nc3ccccn3)n2)cc(OC)c1OC [compound 38, N^4-(Pyridin-2-yl)-5-(trifluoromethyl)-N^2-(3,4,5-trimethoxyphenyl)pyrimidine-2,4-diamine] | 200 to 2000 |
| COc1ccc(Nc2nc(Nc3ccc(N4CCOCC4)cc3OC)ncc2Br)cn1 [compound 28, 5-Bromo-N^2-(2-methoxy-4-morpholinophenyl)-N^4-(6-methoxypyridin-3-yl)pyrimidine-2,4-diamine] | 200 to 2000 |
| CS(=O)(=O)c1cccc(CNc2nc(Nc3ccc4[nH]ccc4c3)ncc2Br)c1 [compound 153, 5-bromo-N^2-(1H-indol-5-yl)-N^4-(3-(methylsulfonyl)benzyl) pyrimidine-2,4-diamine] | > 2000 |
| CNC(=O)c1ccccc1Oc1nc(Nc2ccc(C)c(C)c2)ncc1C(F)(F)F [compound 106, 2-((2-((3,4-dimethylphenyl)amino)-5-(trifluoromethyl)pyrimidin-4-yl)oxy)-N-methylbenzamide] | 200 to 2000 |
| CNC(=O)c1ccccc1Oc1nc(Nc2ccccc2OC)ncc1C(F)(F)F [compound 103, 2-((2-((2-methoxyphenyl)amino)-5-(trifluoromethyl)pyrimidin-4-yl)oxy)-N-methylbenzamide] | > 2000 |
| COCCNc1nc(Nc2ccc3c(c2)CCC(=O)N3)ncc1C(F)(F)F [151a, 6-((4-((2-methoxyethyl)amino)-5-(trifluoromethyl)pyrimidin-2-yl)amino)-3,4-dihydroquinolin-2(1H)-one] | < 200 |
| FC(F)(F)c1cnc(NCC2CC2)nc1Nc1ccc2c(c1)OCO2 [167a, N^4-(benzo[d][1,3]dioxol-5-yl)-N^2-(cyclopropylmethyl)-5-(trifluoromethyl)pyrimidine-2,4-diamine] | < 200 |
| N#CCc1cccc(Nc2nc(Nc3ccc4c(c3)CCC(=O)N4)ncc2C(F)(F)F)c1 [compound 61, 2-(3-(2-(2-Oxo-1,2,3,4-tetrahydroquinolin-6-ylamino)-5-(trifluoromethyl)pyrimidin-4-ylamino)phenyl)acetonitrile] | < 200 |
| COc1ccc(Nc2nc(Nc3cc(OC)c(OC)c(OC)c3)ncc2Br)cn1 [compound 25, 5-Bromohloro-N^4-(6-methoxypyridin-3-yl)-N^2-(3,4,5-trimethoxyphenyl)pyrimidine-2,4-diamine] | < 200 |
| CNC(=O)c1cccc(Nc2nc(Nc3ccc4c(c3)CCC(=O)N4)ncc2C(F)(F)F)c1 [compound 128, N-methyl-3-((2-((2-oxo-1,2,3,4-tetrahydroquinolin-6-yl)amino)-5-(trifluoromethyl)pyrimidin-4-yl)amino)benzamide] | < 200 |
| COc1cc(N2CCOCC2)ccc1Nc1ncc(C(F)(F)F)c(Nc2ccc3c(c2)CCC(=O)N3)n1 [123b, 6-((2-((2-methoxy-4-morpholinophenyl)amino)-5-(trifluoromethyl)pyrimidin-4-yl)amino)-3,4-dihydroquinolin-2(1H)-one] | < 200 |

| Compound | IC50 [nM] |
| --- | --- |
| CNC(=O)c1ccccc1Nc1nc(Nc2ccc3[nH]ccc3c2)ncc1Br [compound 23, 2-(2-(1H-indol-5-ylamino)-5-bromopyrimidin-4-ylamino)-N-methylbenzamide] | < 200 |
| FC(F)(F)c1cnc(Nc2ccc3c(c2)OCO3)nc1NC1CCC1 [168b, N^2-(benzo[d][1,3]dioxol-5-yl)-N^4-cyclobutyl-5-(trifluoromethyl)pyrimidine-2,4-diamine] | 200 to 2000 |
| COc1cc(Nc2ncc(Br)c(Nc3ccccn3)n2)cc(OC)c1OC [compound 22, Bromo-N^4-(pyridin-2-yl)-N^2-(3,4,5-trimethoxyphenyl) pyrimidine-2,4-diamine] | < 200 |
| N2-(2-methoxy-5-methylphenyl)-N4-(3-(methylsulfonyl) benzyl)-5-(trifluoromethyl)pyrimidine-2,4-diamine [compound 50] | > 2000 |
| COc1ccc(Nc2nc(Nc3ccc4[nH]ccc4c3)ncc2Cl)cn1 [compound 29, 5-Chloro-N^2-(1H-indol-5-yl)-N^4-(6-methoxypyridin-3-yl) pyrimidine-2,4-diamine] | 200 to 2000 |
| O=C1CCc2cc(Nc3ncc(C(F)(F)F)c(Nc4ccc5c(c4)OC(F)(F)O5)n3)ccc2N1 [178a, 6-((4-((2,2-difluorobenzo[d][1,3]dioxol-5-yl)amino)-5-(trifluoromethyl)pyrimidin-2-yl)amino)-3,4-dihydroquinolin-2(1H)-one] | < 200 |
| CNC(=O)c1ccccc1Oc1nc(Nc2ccccc2)ncc1C(F)(F)F [compound 99, N-methyl-2-((2-(phenylamino)-5-(trifluoromethyl)pyrimidin-4-yl)oxy)benzamide] | > 2000 |
| COc1cc(Nc2ncc(C(F)(F)F)c(NCc3cccc(S(C)(=O)=O)c3)n2)cc(OC)c1OC [compound 31, N^4-(3-(Methylsulfonyl)benzyl)-5-(trifluoromethyl)-N^2-(3,4,5-trimethoxyphenyl)pyrimidine-2,4-diamine] | < 200 |
| O=C1CCc2cc(Nc3ncc(C(F)(F)F)c(Nc4ccccc4N4CCOCC4)n3)ccc2N1 [118a, 6-((4-((2-morpholinophenyl)amino)-5-(trifluoromethyl)pyrimidin-2-yl)amino)-3,4-dihydroquinolin-2(1H)-one] | < 200 |
| O=C1CCc2cc(Nc3ncc(C(F)(F)F)c(C#Cc4ccccc4)n3)ccc2N1 [compound 64, 6-(4-(Phenylethynyl)-5-(trifluoromethyl)pyrimidin-2-ylamino)-3,4-dihydroquinolin-2(1H)-one] | > 2000 |
| O=C1CCc2cc(Nc3ncc(C(F)(F)F)c(CCc4ccccc4)n3)ccc2N1 [compound 66, 6-((4-Phenethyl-5-(trifluoromethyl)pyrimidin-2-yl)amino)-3,4-dihydroquinolin-2(1H)-one] | 200 to 2000 |
| CNC(=O)c1ccccc1Oc1nc(Nc2ccc(Cl)c(Cl)c2)ncc1C(F)(F)F [108a, 2-((2-((3,4-dichlorophenyl)amino)-5-(trifluoromethyl)pyrimidin-4-yl)oxy)-N-methylbenzamide] | > 2000 |
| CNC(=O)c1ccccc1Nc1ccnc(Nc2cc(OC)c(OC)c(OC)c2)n1 [compound 60, N-Methyl-2-(2-(3,4,5-trimethoxyphenylamino)pyrimidin-4-ylamino)benzamide] | < 200 |
| FC(F)(F)c1cnc(Nc2ccc3c(c2)OCO3)nc1N1CCCC1 [164b, N-(benzo[d][1,3]dioxol-5-yl)-4-(pyrrolidin-1-yl)-5-(trifluoromethyl)pyrimidin-2-amine] | 200 to 2000 |
| CNC(=O)c1ccccc1Oc1nc(Nc2ccccc2SC)ncc1C(F)(F)F [116a, N-methyl-2-((2-((2-(methylthio)phenyl)amino)-5-(trifluoromethyl)pyrimidin-4-yl)oxy)benzamide] | > 2000 |
| Fc1c(Nc2ncc(C(F)(F)F)c(Nc3ccc4c(c3)OCO4)n2)cccc1C(F)(F)F [141a, N^4-(benzo[d][1,3]dioxol-5-yl)-N^2-(2-fluoro-3-(trifluoromethyl)phenyl)-5-(trifluoromethyl)pyrimidine-2,4-diamine] | > 2000 |
| COc1cc(N2CCOCC2)ccc1Nc1ncc(C(F)(F)F)c(NCc2cccc(S(C)(=O)=O)c2)n1 [compound 52, N^2-(2-Methoxy-4-morpholinophenyl)-N^4-(3-(methylsulfonyl)benzyl)-5-(trifluoromethyl)pyrimidine-2,4-diamine] | > 2000 |
| CNC(=O)c1ccccc1Nc1nc(Nc2cc3c(cc2C)OCO3)ncc1Cl [compound 57, 2-(5-Chloro-2-(6-methylbenzo[d][1,3]dioxol-5-ylamino)pyrimidin-4-ylamino)-N-methylbenzamide] | < 200 |
| COc1c(C)cnc(CNc2nc(Nc3ccc4c(c3)CCC(=O)N4)ncc2C(F)(F)F)c1C [compound 82, 6-((4-(((4-Methoxy-3,5-dimethylpyridin-2-yl)methyl)amino)-5-(trifluoromethyl)pyrimidin-2-yl)amino)-3,4-dihydroquinolin-2(1H)-one] | < 200 |
| CNC(=O)c1cccc(Oc2nc(Nc3ccc4c(c3)CCC(=O)N4)ncc2C(F)(F)F)c1 [compound 122, N-methyl-3-((2-((2-oxo-1,2,3,4-tetrahydroquinolin-6-yl)amino)-5-(trifluoromethyl)pyrimidin-4-yl)oxy)benzamide] | 200 to 2000 |
